Experimental data reported in US10473666B2, “Dye compounds” (SFC CO., LTD., priority 2015, dated 2019).

Columns and labels:
[1] = Absorption spectra, emission spectra, molar extinction coefficients and quantum yields of the dye compounds; type: physicochemical; settings: Table 6
[2] = test system: mitochondria, HeLa A431 cells; assay: Selectivity for mitochondria: co-localization with MitoTracker Green FM in HeLa A431 cells; type: cell-based; settings: dye 0.5 μM
Experimental: The specific selectivity of the compound of Formula 97 for mitochondria was investigated. To this end, HeLa A431 cells were co-localized with the compound of Formula 97 and a commercially available mitochondrial marker (MTG, 0.2 μM MitoTracker Green FM for mitochondria).
OPM images were acquired at 571-650 nm (Formula 97, λex=552 nm) and 498-540 nm (MTG, λex=488 nm) and are shown in FIGS. 6a and 6b, respectively. FIG. 6c is a merged image of FIGS. 6a and 6b. The Pearson's co-localization coefficient (A) was calculated using the LAS AF software. [MTG]=0.2μM for 30 min incubation,λex=488 nm [Formula 97]=0.5μM for 30 min incubation,λex=552 nm

[3] = Photophysical properties incl. two-photon cross-sections (femtosecond fluorescence measurement technique); type: physicochemical
Experimental: All measurements were performed in DMSO, ethanol, and PBS buffer. Two-photon cross-sections (δ) were measured using a femtosecond (fs) fluorescence measurement technique.

[4] = Characterization as pH probes: fluorescence intensity versus pH; type: physicochemical
Description: In addition, the absorption and fluorescence wavelengths of the compound of Formula 97 well match currently available laser lines (488 nm, 532 nm, and 550 nm).
That is, the compound of Formula 111 as a pH probe emitted strong fluorescence at pH 2-6 and the compound of Formula 97 as a pH probe emitted strong fluorescence at pH 8-12.

CC1(C)C2=C3C=C4C=CC(=O)C=C4OC3CCN2c2ccccc21 (stereo not drawn) [Formula 97]
Quantum yield ([1]; solvent DMSO): 0.94
ε (molar extinction coefficient) ([1]; solvent DMSO): 35,000 M^−1cm^−1
λabs ([1]; solvent DMSO): 551 nm
λem ([1]; solvent DMSO): 568 nm
Quantum yield ([1]; solvent EtOH): 0.90
ε (molar extinction coefficient) ([1]; solvent EtOH): 47,000 M^−1cm^−1
λabs ([1]; solvent EtOH): 555 nm
λem ([1]; solvent EtOH): 567 nm
Quantum yield ([1]; solvent PBS): 0.63
ε (molar extinction coefficient) ([1]; solvent PBS): 14,000 M^−1cm^−1
λabs ([1]; solvent PBS): 541 nm
λem ([1]; solvent PBS): 565 nm
staining selectivity for mitochondria [2]: mitochondria were predominantly stained
degree of overlapping (A), Pearson's co-localization coefficient with Mitotracker Green FM ([2]; MTG 0.2 μM, 30 min incubation, LAS AF software): 0.74
d: Peak two-photon cross-section ([3]; Buffer (PBS buffer)): 35 10^−50 cm^4s per photon (GM)
dΦ: Two-photon action cross-section ([3]; Buffer (PBS buffer)): 22 GM
Φ: Fluorescence quantum yield ([3]; Buffer (PBS buffer)): 0.63
λ^(2)max^abs: Maximum wavelength in two-photon absorption spectrum ([3]; Buffer (PBS buffer)): 920 nm
λmax^fl: Maximum wavelength in single-photon emission spectrum ([3]; Buffer (PBS buffer)): 565 nm
eΦ: Molar extinction coefficient × fluorescence quantum yield ([3]; Buffer (PBS buffer), in M-1cm-1): 8820
Φ: Fluorescence quantum yield ([3]; DMSO): 0.94
λmax^fl: Maximum wavelength in single-photon emission spectrum ([3]; DMSO): 567 nm
dΦ: Two-photon action cross-section ([3]; EtOH): 14 GM
λ^(2)max^abs: Maximum wavelength in two-photon absorption spectrum ([3]; EtOH): 720 nm
pH at which the pH probe emitted strong fluorescence [4]: 8-12 pH
fluorescence intensity under acidic conditions ([4]; pH 1-6): decreased
fluorescence intensity under basic conditions ([4]; pH 9-12): increased
